This note sets out measurements from patent US9820943B2, “Micronized amoxicillin” (DSM SINOCHEM PHARMACEUTICALS NETHERLANDS B.V., priority 2013, dated 2017).

The nature of this data set: Powder dissolution, visual determination of clarity in drinking water. Format: physicochemical. The following applies: 3.0 g in 1000 mL drinking water, stirred 2 min at 300±10 rpm, 30±1° C.; trihydrate. The method, then: Non-micronized amoxicillin trihydrate (3.0 g) was added to a 2 L beaker and drinking water (1000 mL) was added. The mixture was stirred for 2 min at 300±10 rpm at 30±1° C. After two minutes the stirrer was stopped. The same procedure was applied to a sample of micronized amoxicillin trihydrate. Both mixtures were visually observed.

Take `CC1(C)S[C@@H]2[C@H](NC(=O)[C@H](N)c3ccc(O)cc3)C(=O)N2[C@H]1C(=O)O` [Non-micronized amoxicillin trihydrate, amoxicillin trihydrate]: the “Visual appearance of the mixture (clarity)” value was “cloudy”.

For the molecule `CC1(C)S[C@@H]2[C@H](NC(=O)[C@H](N)c3ccc(O)cc3)C(=O)N2[C@H]1C(=O)O` [micronized amoxicillin trihydrate, amoxicillin trihydrate], the “Visual appearance of the mixture (clarity)” value is listed as “clear”.
